Test results reported in ChEMBL document CHEMBL3137667, “[Drug-induced liver injury; fourteenth updated edition of the bibliographic database of liver injuries and related drugs]” (Gastroenterol Clin Biol, 2004).
Structures can show the parent of a compound that is named as a salt.

Legend:
[1] = human, serum, 4383 h
[2] = Highest frequency of moderate liver toxicity observed during clinical trials, expressed as a percentage. [column '% BIOL' in source]; conditions: human
[3] = Highest frequency of acute liver toxicity observed during clinical trials, expressed as a percentage. [column '% AIGUE' in source]; conditions: human
[4] = human
[5] = human; remark: listed apart in the source
[6] = human; remark: listed apart in the source
[7] = human; remark: listed apart in the source
[8] = human, serum
[9] = human; remark: listed apart in the source
[10] = Times to onset, minimal and maximal, observed in the indexed observations. [column 'DELAI' in source]; conditions: human
[11] = human; remark: listed apart in the source
[12] = human; remark: listed apart in the source
[13] = human; remark: listed apart in the source
[14] = human; remark: listed apart in the source
[15] = human, serum; remark: listed apart in the source
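Throughout, for Hepatotoxicity (association with vascular disease): count of indexed literature references reporting vascular liver injury in humans, e.g. peliosis hepatitis, hepatic veno-occlusive disease or Budd-Chiari syndrome.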
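Throughout, for Hepatotoxicity (benign tumour): value is a count of indexed literature references citing a benign tumour confirmed by histopathology.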
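Throughout, for Hepatotoxicity (choleostasis): human cholestatic liver injury, shown by histopathology or by peak ALT or AST elevation over alkaline phosphatase ratio below 2, value counts indexed literature reports.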
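Throughout, for Hepatotoxicity (chronic liver disease): chronic liver injury confirmed by histopathology or persistently raised serum aminotransferase activity beyond 6 months, value given as the count of indexed literature references.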
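Throughout, for Hepatotoxicity (cirrhosis): value is a count of indexed literature references reporting cirrhosis confirmed by histopathology.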
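Throughout, for Hepatotoxicity (cytolytic): human cytolytic liver injury, shown by histopathology or by a ratio above 5 of peak ALT or AST elevation to alkaline phosphatase elevation, value counts indexed references.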
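Throughout, for Hepatotoxicity (granulomatous hepatitis): value is a count of indexed literature references reporting granulomatous liver disease confirmed by histopathology.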
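Throughout, for Hepatotoxicity (malignant tumour): malignant tumour confirmed by histopathology, value gives the count of indexed literature references reporting it.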
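Throughout, for Hepatotoxicity (severe hepatitis): human clinical data: severe hepatitis, meaning potentially life-threatening liver failure or clinically observed cases, the value counts how many indexed literature references report it.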
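Throughout, for Hepatotoxicity (steatosis): steatosis confirmed by histopathology, value is the count of indexed references.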

| SMILES | Hepatotoxicity (chronic liver disease) [1] | Hepatotoxicity (moderate) [2] | Hepatotoxicity (acute) [3] | Hepatotoxicity (severe hepatitis) [4] | Hepatotoxicity (cirrhosis) [5] | Hepatotoxicity (choleostasis) [6] | Hepatotoxicity (steatosis) [7] | Hepatotoxicity (acute) [8] | Hepatotoxicity (cytolytic) [9] | Hepatotoxicity (time to onset) [10] | Hepatotoxicity (malignant tumour) [11] | Hepatotoxicity (granulomatous hepatitis) [12] | Hepatotoxicity (benign tumour) [13] | Hepatotoxicity (association with vascular disease) [14] | Hepatotoxicity (moderate) [15] | further results |
| --- | --- | --- | --- | --- | --- | --- | --- | --- | --- | --- | --- | --- | --- | --- | --- | --- |
| Nc1ccc(C(=O)O)cc1 [AMINOBENZOIC ACID] | 0 | 35% | 0% | 0 | 0 | 0 | 0 | 3 | 2 | 4 weeks - 2 months | 0 | 0 | 0 | 0 | 1 | – |
| CCN1CCCC1CNC(=O)c1cc(S(=O)(=O)CC)c(N)cc1OC (stereo not given) [AMISULPRIDE] | 0 | 0% | 0% | 0 | 0 | 0 | 0 | 0 | 0 | 2 weeks | 0 | 0 | 0 | 0 | 1 | – |
| CC(=O)Nc1ccc(/C=N/NC(N)=S)cc1 [AMITHIOZONE] | 0 | 18% | 2.5% | 2 | 1 | 2 | 2 | 6 | 5 | 1.5 months - 6 months | 0 | 0 | 0 | 0 | 4 | – |
| CN1CCN(C(=S)Nc2ccc(Nc3ccc([N+](=O)[O-])cc3)cc2)CC1 [AMOCARZINE] | 0 | 0% | 0% | 0 | 0 | 0 | 0 | 0 | 0 | 4 days - 2 months | 0 | 0 | 0 | 0 | 1 | – |
| Clc1ccc2c(c1)C(N1CCNCC1)=Nc1ccccc1O2 [AMOXAPINE] | 0 | 0% | 0% | 0 | 0 | 0 | 0 | 2 | 2 | 4 days - 18 days | 0 | 0 | 0 | 0 | 2 | – |
| N#C[C@H](O[C@@H]1O[C@H](CO[C@@H]2O[C@H](CO)[C@@H](O)[C@H](O)[C@H]2O)[C@@H](O)[C@H](O)[C@H]1O)c1ccccc1 [AMYGDALIN] | 0 | 0% | 0% | 1 | 0 | 0 | 0 | 0 | 0 | 2 days | 0 | 0 | 0 | 0 | 0 | – |
| C=CCC(C(=O)NC(N)=O)C(C)C (stereo not given) [APRONAL] | 0 | 0% | 0% | 0 | 0 | 0 | 0 | 2 | 0 | 2 days - 2 years | 0 | 2 | 0 | 0 | 0 | – |
| [AsH3] [ARSENIC] | 1 | – | – | – | 1 | – | 0 | 1 | – | 46 years | 1 | – | 0 | 0 | 4 | Hepatotoxicity (moderate) ([2]; Liver): 35.7%; Hepatotoxicity (acute) ([3]; Liver): 47.6%; Hepatotoxicity (severe hepatitis) ([4]; Liver): 0; Hepatotoxicity (choleostasis) ([6]; Liver): 0; Hepatotoxicity (cytolytic) ([9]; Liver): 0; Hepatotoxicity (granulomatous hepatitis) ([12]; Liver): 0 |
| C[C@H]1[C@H](OC(=O)CCC(=O)O)O[C@@H]2O[C@@]3(C)CC[C@H]4[C@H](C)CC[C@@H]1[C@@]24OO3 [ARTESUNATE] | 0 | 0% | 6.7% | 0 | 0 | 0 | 0 | 1 | 1 | 48 days | 0 | 0 | 0 | 0 | 0 | – |
| CC(C)NCC(O)COc1ccc(CC(N)=O)cc1 (stereo not given) [ATENOLOL] | 0 | 10% | 0% | 0 | 0 | 1 | 1 | 2 | 1 | 2 days - 9 months | 0 | 0 | 0 | 0 | 1 | – |
| CCNc1cccnc1N1CCN(C(=O)c2cc3cc(OC)ccc3[nH]2)CC1 [ATEVIRDINE MESYLATE] | 0 | 0% | 6.7% | 0 | 0 | 0 | 0 | 1 | 0 | 3 weeks | 0 | 0 | 0 | 0 | 0 | – |
